According to publication PMC12430169, “Notoginsenoside R1, a Metabolite from Panax notoginseng, Prevents Paclitaxel-Induced Peripheral Neuropathic Pain in Mice” (Molecules, 2025):

Molecular target: T1, human recombinant monoacylglycerol lipase (MAGL) (Homo sapiens, UniProt Q99685)
T1 construct: gene MGLL
T1 sequence (Q99685 1-303): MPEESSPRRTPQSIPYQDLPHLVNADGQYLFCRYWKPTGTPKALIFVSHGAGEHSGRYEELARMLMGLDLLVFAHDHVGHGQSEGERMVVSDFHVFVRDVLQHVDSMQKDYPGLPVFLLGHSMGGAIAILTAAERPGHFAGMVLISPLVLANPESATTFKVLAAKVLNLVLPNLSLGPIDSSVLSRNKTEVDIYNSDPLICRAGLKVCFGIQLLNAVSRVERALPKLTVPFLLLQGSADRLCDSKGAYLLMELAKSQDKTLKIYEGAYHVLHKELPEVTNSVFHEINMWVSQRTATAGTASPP
Test: colorimetric MAGL inhibitor screening kit (Cayman), 4-nitrophenyl acetate hydrolysis at […] nm; […] inhibition at […] at […] min, […] at […] min; inhibition falls with concentration
Type: biochemical

SMILES: CC(C)=CCC[C@](C)(O[C@@H]1O[C@H](CO)[C@@H](O)[C@H](O)[C@H]1O)[C@H]1CC[C@]2(C)[C@@H]1[C@H](O)C[C@@H]1[C@@]3(C)CC[C@H](O)C(C)(C)[C@@H]3[C@@H](O[C@@H]3O[C@H](CO)[C@@H](O)[C@H](O)[C@H]3O[C@@H]3OC[C@@H](O)[C@H](O)[C@H]3O)C[C@]12C [NGR1, Notoginsenoside R1]
- inhibition at 1 µM: 41%
